Experimental findings from patent publication US20030203969A1, “Pharmaceutically active aromatic guanylhydrazones” (priority 2000, published 2003) are described below.

Test [1] has as its system herpes simplex virus type 1 (strain HF). Put plainly: HSV-1 cytopathic effect (CPE) inhibition assay in Vero cells (MTS). The format is cell-based. The text has this: A virus-induced cytopathic effects (CPE)-inhibition assay procedure using Promega's Cell Titer Aqueous One Solution (MTS, metabolic dye) is employed to evaluate compounds for antiviral activity against herpes simplex virus type 1 (strain HF) in Vero cells (African green monkey cells, ATCC Cat. No. CCL-81). Vero cells are pregrown in 96-well tissue culture plates using Dulbecco's Modified Eagle's Medium (DMEM) supplemented with 10% heat-inactivated fetal bovine serum (FBS), L-glutamine, penicillin, and streptomycin. To each of the replicate cell cultures is added 50 μl of the test drug solution and 50 μl of virus suspension. Cell controls containing medium alone, virus-infected controls containing medium and virus, drug cytotoxicity controls containing medium and each drug concentration, reagent controls containing culture medium only (no cells), and drug calorimetric controls containing drug and medium (no cells) are run simultaneously with the test samples. The plates are incubated at 37° C. in a humidified atmosphere containing 5% CO2 until maximum CPE is observed in the untreated virus control cultures (Day 5). CPE inhibition is determined by a dye (MTS) uptake procedure. […] The purple color of the MTS formazan is then measured spectrophotometrically at 490/650 nm. […]

For test [2], the system named is macrophage-tropic HIV-1Ba-L strain. Nature of the test: Inhibition of macrophage-tropic HIV-1 Ba-L replication in de novo infected PM1 cells (p24 antigen). The format is cell-based. The note with it: d10. The procedure: HIV replication was measured either by p24 HIV Antigen Capture Assay Kit (ELISA; HIVAG-1 Monoclonal kit BIA011; Abbott) following the manufacturer's recommendation, or by using the Quantiplex HIV-1 RNA 3.0 Assay (bDNA) system (Chiron Diagnostics). The latter assay is a signal amplification nucleic acid probe assay (employing a sandwich nucleic acid hybridization procedure) for direct quantitation of HIV RNA in human plasma. There, in brief, HIV-1 is first concentrated from plasma by centrifugation. After release of genomic HIV-1 RNA from the virions, the RNA is captured to a microwell by a set of specific, synthetic oligonucleotide capture probes. A set of target probes hybridize to both the viral RNA and the pre-amplifier probes. The capture probes, comprised of 17 individual capture extenders, and the target probes, comprised of 81 individual target extenders, bind to different regions of the pol gene of the viral RNA. The amplifier probe hybridizes to the pre-amplifier forming a branched DNA (bDNA) complex. Then, multiple copies of an alkaline phosphatase labeled probe are hybridized to this immobilized bDNA complex. Detection is achieved by incubating the entire complex with a chemoluminescent substrate. Light emission is directly proportional to the amount of HIV-1 RNA present in each sample, and results are recorded as relative light units by an appropriate analyzer.
Jurkat cells (species: human T-cell leukemia; special characteristics: cells are permissive for growth of T-cell tropic HIV strains; source:ATCC Cat.No. TIB 152) or PM1 cells (species: clonal derivative of human HUT 78 cells; special characteristics: cells are permissive for growth of macrophage-tropic and T-cell tropic HIV strains; source: Dr. Marvin Reitz, courtesy of the NIH AIDS Research and Reference Reagent Program Cat.No. 3038) were stimulated with Phytohemagglutinin (PHA-P, Product No. L9132 from Sigma) in a concentration of 2 μg/ml (1.5×10^6 cells/ml) and Hexadimethrine Bromide (Polybrene, Product No. H9268 from Sigma) in a concentration of 2 μg/ml (1.5×10^6 cells/ml) in RPMI 1640 medium containing 10% fetal calf serum (FCS, Pansystems GmbH) and antibiotics for 3 days.
For HIV-1 infection, 5×10^7 cells were resuspended in 500 μl culture medium without test drugs and incubated in a 50 ml blue-cap-tube at 37° C. for 5 hrs with HIV-1 high titer viral stocks. Jurkat cells were infected with the T-cell tropic strain HIV-1 NL4-3, PM1 cells with the macrophage tropic strain HIV-1 Ba-L (both from the NIH AIDS Research and Reference Reagent Program). After infection, cells were washed twice with PBS without Ca^2+ and Mg^2+ to avoid false positive p24 antigen determination. Cells were resuspended, and identical aliquots (1×10^6/ml) of infected cells were further cultured in 10 ml medium with test drugs at various concentrations, or in medium with DMSO as control for calculation of the inhibition of virus replication (in %].
Culture medium was changed and cells were split at days 3 and 7 of the experiments. Viability of the cells (Trypan-blue staining), cell counts and p24 antigen levels were determined at days 3, 7 and 10 of the experiments. No significant differences in cell viability were observed (˜85-90% living cells).
At day 10 of infection, the HIV strains replicated vigorously in untreated cultures. Numbers describe percent inhibition of HIV replication as compared to control experiments.

Test [3] concerns Lamivudine-resistant, mutant HBV. Put plainly: Transfected Lamivudine-resistant mutant HBV production in HepG2 cells. The format is cell-based, Hepatitis B virus. The procedure: Human HepG2-2.2.15 cells (ATCC Cat. No. CRL-11997), chronically infected with HBV, are plated in 96-well microtiter plates in DMEM medium supplemented with fetal bovine serum. After incubation at 37° C. in a humidified, 5% CO2 environment for 16-24 hours, the monolayer of HepG2-2.2.15 cells is washed and the medium is replaced with complete medium containing various concentrations of test compound. Every three days during the experiments, the culture medium is replaced with fresh medium containing the appropriately diluted test compound. Six days following the initial administration of the test compound, the cell culture supernatant is collected and clarified by centrifugation. The cell viability is evaluated by a dye uptake procedure (Promega's Cell Titer Aqueous One Solution). Virion-associated HBV DNA present in the tissue culture supernatant is amplified employing PCR technology using primer pairs derived from the HBV strain ayw. Subsequently, the PCR-amplified HBV DNA is detected in real-time by monitoring increases in fluorescence signals that result from exonucleolytic degradation of a quenched fluorescent probe molecule following hybridization of the probe to the amplified HBV DNA (TaqMan; Perkin-Elmer).
The same type of experiments was additionally performed with a mutant, Lamivudine-resistant HBV strain, which was transfected into HepG2 cells. […]

Consider `CC(=NNC(=N)N)c1cc(NC(=O)CCCCCCCCC(=O)Nc2cc(C(C)=NNC(=N)N)cc(C(C)=NNC(=N)N)c2)cc(C(C)=NNC(=N)N)c1` [Compound 4, N,N′-bis (3,5-diacetylphenyl) decane diamide tetrakis (amidinohydrazone)], for which the Comments result is listed as “Active” in test [1] (HSV-1, Vero cells) and “Active” in test [3] (Lamivudine-resistant mutant HBV). Also, the IC50 in test [1] (HSV-infected Vero cells, reduces the CPE by 50%) turned out to be 1560 nM; in test [3] (Lamivudine-resistant mutant HBV transfected into HepG2 cells, read-out: IC50 (μM) Virion-DNA), 2.78 µM. Also, the “percent inhibition of HIV replication as compared to control” value was found to be 82% in test [2] (0.5 μM) and 73% in test [2] (1.0 μM).
